The test system of the assay is hMSCs. The experiment in a line: Loss of stemness: STRO-1 expression by immunostaining. Format: cell-based, human. Here is the method:
The cells were first fixed for 20 min with 4% paraformaldehyde/PBS at 4° C. After fixation, the cells were permeabilized in PBS containing 1% Triton X-100 for 15 min. Runx2, Osterix, Stro-1, Vinculin, Phalloidin, Osteopontin, Sox2, Sox9 antibodies were visualized by treating the cells with 1% (v/v) specific monoclonal antibodies for 1 hour at 37° C. Then the samples were incubated with Alexa Fluor® 568 or 647 (F(ab′)2 fragment of IgG(H+L)) during 30 min at room temperature. The cell nuclei were counterstained in 20 ng/mL DAPI for 10 min at room temperature.
For this type of quantification the freeware image analysis ImageJ® software was used. The raw image was first converted to an 8-bit file, and then the unsharp mask feature was used (settings 1:0.2) to remove the image background (rolling ball radius 10). After smoothing, the resulting image, which appears similar to the original photomicrograph but with minimal background, was then converted to a binary image by setting a threshold. Threshold values were determined empirically by selecting a setting, which gave the most accurate binary image for a subset of randomly selected photomicrographs. The cell area was determined by manual delineation on raw fluorescent images. Total contact area and mean contact area per cell were calculated by “analyse particules” in ImageJ®. A minimum of 30 cells per condition were analyzed. Stro-1, CD-34+, and CD-105 expressions were determined using this procedure.
hMSCs were cultured on conventional cell culture plastic plates with or without the presence in the cell culture media of different GFR-binding compounds as described herein (SEQ ID NO: 50 to 88) in solution. […] This was probed by Stro-1 immunostaining after cell fixation as described in the Methods section. The quantification of Stro-1 positive contact numbers and areas was performed as described in the Methods section. A minimum of 30 cells per condition were analyzed. Stro-1 positive marrow cells are multipotential and capable of differentiating into multiple mesenchymal lineages including stromal cells with a phenotype resembling vascular smooth muscle cells that can support hematopoiesis, adipocytes, osteoblasts, and chondrocytes.
Using the method detailed in the description, the RMSD of 57 previously reported peptide sequences have been determined (Table 6) and correlated with the expression of STRO-1 in solution. […] One should note that it is commonly admitted that the expression of STRO-1 in a cell is indicative of a cell that is in a substantially non-differentiated state and the decrease of its expression of at least about 20% is indicative of a cell that has started a process of differentiation but which may not result in the differentiation of the cell. A decrease of more than 50% would be indicative of the presence of a significant shift towards a differentiated state. A decrease of more than 70% would be indicative of the presence of a very important shift towards a differentiated state. A sustained decrease (e.g. for at least 96 h) of more than 50% or 70% would be indicative of the presence of an even more important shift towards a differentiated state.
Likewise, using the method detailed in the description, the RMSD of 75 GFR-binding peptide sequence representatives of the invention have been determined (Table 8) and correlated with the expression of STRO-1. SEQ ID NO: 1 to 49 were tested in combination with a bioactive carrier as defined above in the Examples Section (i.e. titanium, ceramics, collagen, etc. . . . ), whereas SEQ ID NO: 2242 to 2267 were tested in solution.

The mark [1] stands for this setting: Table 8, SEQ ID NO: 2242 to 2267 tested in solution.
The mark [2] stands for this setting: Table 8, SEQ ID NO: 1 to 49 tested in combination with a bioactive carrier (titanium, ceramics, collagen, etc.).
The mark [3] stands for this setting: Table 6, previously reported peptides in solution, 400 ng/mL.

Where no end group is shown, it is not given here.

In the case of “2264 (KIPKASSVPQELEPLPIVYYDENEKVVEQLSNDMVRSGSGSR; GFR-binding peptide) [compound 2264]”, under setting [1], the “STRO-1 expression (%)” value is 24%.
For “32 (WWFWGKASSVPTELSPISTLYKDENEKVVLKYHYDMVVEGSGSR; not fully specified; ends and bridges not checked) [compound 32]”, the “STRO-1 expression (%)” value under setting [2] is reported as 21%.
Take “2202 (CPKPSSAPTELSAISMLL; Peptide reported in WO2009151288, SEQ ID NO:3) [compound 2202]”: the “STRO-1 expression (%)” value under setting [3] is given as 79%.
On the same count and under the same terms, the same measure for “2174 (CVTKPLSSLLFPNWNTTTTPTPP; Peptide reported in WO2013040142, SEQ ID NO:642255) [compound 2174]”: 92%.
On the same count and under the same terms, with “2177 (VPTKLEPISVLYKDDMGVPTLKYHYEGMAVSECGCR; Peptide reported in US8969040, SEQ ID NO:89) [compound 2177]” the figure was 81%; with “2204 (KIPKPSSAPTELSAISMLC; Peptide reported in WO2009151288, SEQ ID NO:6) [compound 2204]”, 82%; with “2165 (LMDLARMPSCLRGERAVPQDTTGYFTWSSNITPLNFIF; Peptide reported in US20110300149, SEQ ID NO:32) [compound 2165]”, 92%.
Take “2245 (APTLLNAISMLYFNDKQQIILKKYRLLVVR; GFR-binding peptide) [compound 2245]”: the “STRO-1 expression (%)” value under setting [1] came to 22%.
Take “2210 (SRVLPIVVQGYVPVQDTKFLGIYYVIGPIIARVILSSSSAISSLNKS; Peptide reported in US20040031072, SEQ ID NO:188005) [compound 2210]”: the “STRO-1 expression (%)” value under setting [3] is 84%.
On to “2254 (VPTMMSNITTQIMRIKPHQGQHIGEMSMMQHN; GFR-binding peptide) [compound 2254]”, for which, under setting [1], the “STRO-1 expression (%)” value is listed as 19%.
For “2209 (MRTESTPTTASAISYECLWSPPSNEAAKLHFDS; Peptide reported in US20070083334, SEQ ID NO:966410) [compound 2209]”, the “STRO-1 expression (%)” value under setting [3] was 94%.
Turning to “2257 (VPTGGEPLTTLYYNDKQQIIEQLSNGGEHS; GFR-binding peptide) [compound 2257]”, the “STRO-1 expression (%)” value under setting [1] was found to be 26%.
For the substance “48 (CVPQRLSPISILYIDAANNVVYKQYE; GFR-binding peptide) [compound 48]”, the “STRO-1 expression (%)” value under setting [2] was 18%.
With “2242 (VPTAASAISILYLDAANNVVLKNYQAAVVE; GFR-binding peptide) [compound 2242]”, the “STRO-1 expression (%)” value under setting [1] came to 17%.
Consider “31 (GTPGPPKPSSAPTQLNAISMLYFGGGGGLKKYRDMQHN; GFR-binding peptide) [compound 31]”, for which the “STRO-1 expression (%)” value under setting [2] is 31%.
Turning to “2189 (SSVPAVCSATSATGPYSTATNTVWFDVYATTVY; Peptide reported in EP1687419, SEQ ID NO:46) [compound 2189]”, the “STRO-1 expression (%)” value under setting [3] turned out to be 91%.
On the same count and under the same terms, the same measure for “2198 (APTKLNAISVLYFDDSSNVILKKYRNMIVKS; Peptide reported in US20120244575, SEQ ID NO:4530) [compound 2198]”: 84%; for “2192 (SFRTARANAPTGRSSLSGEKEQQEASTHS; Peptide reported in WO2013040142, SEQ ID NO:3136558) [compound 2192]”: 91%.
In the case of “29 (GTPGPKASSVPTELSPISTLYKDENEKVVLKYHYDMVVEGSGSR; not fully specified; ends and bridges not checked) [compound 29]”, the “STRO-1 expression (%)” value under setting [2] stood at 21%.
As to “2 (CKVGKASSVPTKLSAISTLYLDDMGVPTLKNYQNMVVRASGSH; not fully specified; ends and bridges not checked) [compound 2]”, the “STRO-1 expression (%)” value under setting [2] is recorded as 21%.
Same read-out and setting: with “1 (CKVPKPSSAPTQLSAISTLYLDEYDKVVLKNYQNMVVRA; not fully specified; ends and bridges not checked) [compound 1]” the figure was 26%.
